Measured values: patent US6090610A, “Macrolide compound 0406” (Higeta Shoyu Co., Ltd., priority 1996, dated 2000)
Converted amounts (≈) assume the structure as drawn. One block for each compound: values may come before it.

Key:
[1] = tested on: Nocardia brasiliensis IFM 0406; test: Sensitivity of Nocardia brasiliensis IFM 0406 against antibiotics; format: cell-based
Method: The strain was cultured in a culture medium (brain heart infusion containing 2% glucose) at 30° C. with shaking at 250 rpm for 72 hours, and the cells grown in the medium were collected by centrifuge at 3,000 rpm for 10 minutes, which were then washed twice in distilled water. Further, the cells were washed in ethanol and subsequently dried in vacuum to give the dry cells. According to Bergey's Manual of Determinative Bacteriology, the 9-th edition, Williams & Willkins, Baltimore, 1993, the amino acid composition, sugar composition and lipid composition of the dry cells were determined. Meso-diamino pimelic acid was detected by the amino acid analysis, while arabinose and galactose were detected by the sugar analysis. Also, the presence of mycolic acid was determined by the lipid analysis, and the type of the acid was Nocardia type. MK-8(H4) cycle was confirmed as a principal component of the isoprenoid quinone which is a part of the bacterial lipid, while as the trace components, MK-8(H4), MK-8(H), and MK-9(H2) were confirmed. Based onthe decomposition of adenine, casein, hypoxanthine and tyrosine and additionally on the formation patterns of acids from sugar and the antimicrobial sensitivity patterns, shown in Table 4 (Mikami & Yazawa, Susceptibility pattern of pathogenic Nocardia to some selected antimicrobial agents and their usefulness in the identification work in a clinical laboratory: BuLL. JFCC, 5: 89, 1989), the bacterial strain was identified as the species N. brasiliensis. The results of the analysis of the G+C content and DNA homology support strongly that the strain is N. brasiliensis.

[2] = tested on: murine T cells (C57BL/6 splenocytes as responder cells); test: Murine mixed lymphocyte reaction (MLR), T-cell blast formation by tritium-labeled thymidine uptake; format: cell-based; conditions: Mus musculus, 96 h culture + 7 h labeling, read-out: IC50 (MLR, inhibition of tritium-labeled thymidine uptake)
[3] = Cytotoxity test, 3H-thymidine uptake, HEK-297; format: cell-based; conditions: human, hek-297 cells; HEK-297, 96 h; read-out: IC50 (cytotoxity)
Method: (§1) After culturing for 96 hours, ^3 H-thymidine (0.5 μCi/well) was added into each well. The microtiter plate was incubated for 4 hours, followed by trypsin treatment of the cell lines excluding YAC-1, and the resulting cells were recovered on glass fiber filters to measure the radioactivity incorporated into the cells by means of a liquid scintillation counter. From the radioactivity (c) of a well with no addition of any sample and the radioactivity (t) of each of the wells with addition of the individual samples, the growth inhibition rate was determined by the formula […] (%). IC50 was calculated from the results.

[4] = Cytotoxity test, 3H-thymidine uptake, Cos-1; format: cell-based; conditions: monkey, cos-1 cells; Cos-1, 96 h; read-out: IC50 (cytotoxity)
Method: as §1

[5] = Cytotoxity test, 3H-thymidine uptake, YAC-1; format: cell-based; conditions: mouse, yac-1 cells; YAC-1, 96 h; read-out: IC50 (cytotoxity)
Method: as §1

[6] = Cytotoxity test, 3H-thymidine uptake, HeLa; format: cell-based; conditions: human, hela cells, read-out: IC50 (cytotoxity)
Method: as §1

[7] = tested on: cultured cell lines (HEK-297, Cos-1, YAC-1, HeLa); test: Cytotoxity test, overall comparison on cultured cell lines; format: cell-based; conditions: in words
Method: (1) The cytotoxity test of compound 0406-A shown in Example 1 was carried out against cultured cell lines.
Cell suspensions (5.6×10^4 cells/ml) were prepared by using the Minimum Essential Medium (MEM)-Dulbecco's medium for HEK-297, Cos-1, and Hela cells, and the RPMI 1640 medium for YAC-1 cells (all media containing 10% bovine serum). Samples (0406A, Cyclosporin and Ascomycin) were prepared by serial two-fold dilution starting from 1 mg/ml, by using the individual media. A cell suspension (180 μl) and a sample solution (20 μl) were added into each well of a 96-well microtiter plate, for culturing at 37° C. in wet 5% CO2 -95% air environment. After culturing for 96 hours, ^3 H-thymidine (0.5 μCi/well) was added into each well. The microtiter plate was incubated for 4 hours, followed by trypsin treatment of the cell lines excluding YAC-1, and the resulting cells were recovered on glass fiber filters to measure the radioactivity incorporated into the cells by means of a liquid scintillation counter. From the radioactivity (c) of a well with no addition of any sample and the radioactivity (t) of each of the wells with addition of the individual samples, the growth inhibition rate was determined by the formula […] (%). IC50 was calculated from the results.

[8] = tested on: cytotoxic T-cell (CTL) generation; test: In vitro cytotoxic T-cell activity (inhibitory effect on CTL generation induced by murine mixed lymphocyte reaction), 51Cr release from EL-4 cells; format: cell-based; conditions: for Cytotoxic T-cell activity: lytic units per 10^7 effector cells
Method: (2) In vitro cytotoxic T-cell activity (CTL: cytotoxic T-cell) (Inhibitory effect on CTL generation, induced by murine mixed lymphocyte reaction)
A suspension solution (5.5×10^6 cells/ml; 0.9 ml) of BALB/C (H-2^d) splenocytes prepared in the same manner as in Example 2, a suspension solution (5.5×10^6 cells/ml; 0.9 ml) of C57BL/6 (H-2^b) splenocytes preliminarily treated with mitomycin C, and a sample solution (0.2 ml) were added into a 24-well multi-dish, for culturing at 37° C. under conditions of 5% CO2 -95% air for 5 days. After completion of cultivation, the cells were recovered by centrifuge, which were then suspended in the RPMI 1640 medium containing 10% bovine serum, for use as the effector cells.
EL-4 cells (H-2^b) were used as the target cells. The incubation of the EL-4 cells (10^6) with 0.1 μCi Na2^51 CrO4 at 37° C. for 3 hours promoted the ^51 Cr uptake in the cells, and subsequently, the cells were washed and the concentration was adjusted to 2×10^5 cells/ml for use as the target cells.
The determination of the cytotoxic T-cell generation was carried out as follows. The effector cell suspension (100 μl) and the target cell suspension (100 μl) were added into a 96-well round-bottom microtiter plate for cultivation at 37° C. for 4 hours, to measure ^51 Cr release in the supernatant. Then, the cytotoxic T-cell activity was calculated by the formulated below.
Cytotoxic T-cell activity =
[radioactivity of (effector cell + target cell)] -
(radioactivity of target cell alone)/
(radioactivity of target cell treated with 0.1N HCl) -
(radioactivity of target cell alone) × 100
The activity of the cytotoxic T cell was represented in lytic unit (LU). The activity in LU was represented per 10^7 effector cells, when 1 LU was designated as the number of effector cells required for 20% lysis of the 2×10^4 target cells.

[9] = Solubility; format: physicochemical
[10] = in words; cited from earlier work

Compound: O=c1[nH]cc(F)c(=O)[nH]1 [5-FU]
Sensitivity against antibiotics [1]: negative

IC50 [2]: 0.16 µg/mL
Compound: CCCCC(=O)OC1CC(OC(C)C(C)C(O)C(C)C(O)C(C)C2OC(=O)C=CCC(O)CC(O)CC(O)CCC(C)C(O)CC3(O)OC(CC(O)CC(OC(=O)CC(=O)O)CCCC(O)C4OC4C2C)CC(O)C3O)OC(C)C1O (stereo not drawn) [0406-A]
CC50 at 96 h [3]: > 100 µg/mL | CC50 at 96 h [4]: > 100 µg/mL | CC50 at 96 h [5]: > 100 µg/mL | CC50 at 96 h [6]: > 100 µg/mL | cytotoxity level versus commercially available immuno suppressive agents [7]: lower than that of the commercially available immuno suppressive agents | Cytotoxic T-cell activity ([8]; 126 ng/ml): 22.0 u | Cytotoxic T-cell activity ([8]; 625 ng/ml): 12.5 u | Cytotoxic T-cell activity ([8]; 2,500 ng/ml): 0.1 u | Cytotoxic T-cell activity ([8]; 10,000 ng/ml): < 0.1 u | inhibition at 0.126 µg/mL ([8]; Mus musculus, T-cell, 120 h, 126 ng/ml, read-out: Inhibition rate (cytotoxic T-cell activity)): 0% | inhibition at 0.625 µg/mL ([8]; Mus musculus, T-cell, 120 h, 625 ng/ml, read-out: Inhibition rate (cytotoxic T-cell activity)): 39.5% | inhibition at 2.5 µg/mL ([8]; Mus musculus, T-cell, 120 h, 2,500 ng/ml, read-out: Inhibition rate (cytotoxic T-cell activity)): 99.5% | inhibition at 10 µg/mL ([8]; Mus musculus, T-cell, 120 h, 10,000 ng/ml, read-out: Inhibition rate (cytotoxic T-cell activity)): > 99.5% | induction of CTL ([8]; in words, dose dependence): decreased the induction of CTL in a dose-dependent manner | Solubility ([9]; chloroform, ethyl acetate, ether): Insoluble in chloroform, ethyl acetate and ether | Solubility ([9]; water, methanol, ethanol, DMSO): Soluble in water, methanol, ethanol and DMSO

IC50 [2]: 0.008 µg/mL
Compound: CC[C@@H]1/C=C(\C)C[C@H](C)C[C@H](OC)[C@H]2O[C@@](O)(C(=O)C(=O)N3CCCC[C@H]3C(=O)O[C@H](/C(C)=C/[C@@H]3CC[C@@H](O)[C@H](OC)C3)[C@H](C)[C@@H](O)CC1=O)[C@H](C)C[C@@H]2OC [Ascomycin, reference compound]
CC50 at 96 h [3]: 25 µg/mL (≈ 31.6 µM) | CC50 at 96 h [4]: 58 µg/mL (≈ 73.2 µM) | CC50 at 96 h [5]: 50 µg/mL (≈ 63.1 µM) | CC50 at 96 h [6]: 13 µg/mL (≈ 16.4 µM)

Compound: C[C@@H](O)[C@H]1C(=O)N2C(C(=O)O)=C(SCCN=CN)C[C@H]12 [imipenem]
Sensitivity against antibiotics [1]: negative

Compound: NC[C@H]1O[C@H](O[C@H]2[C@H](O)[C@@H](O[C@H]3O[C@H](CO)[C@@H](O)[C@H](N)[C@H]3O)[C@H](N)C[C@@H]2N)[C@H](O)[C@@H](O)[C@@H]1O [kanamycin]
Sensitivity against antibiotics [1]: negative

Compound: C=CC[C@@H]1/C=C(\C)C[C@H](C)C[C@H](OC)[C@H]2O[C@@](O)(C(=O)C(=O)N3CCCC[C@H]3C(=O)O[C@H](/C(C)=C/[C@@H]3CC[C@@H](O)[C@H](OC)C3)[C@H](C)[C@@H](O)CC1=O)[C@H](C)C[C@@H]2OC [tacrorims]
side effects [10]: deleterious in the pancreas and the kidney

Compound: NC[C@H]1O[C@H](O[C@H]2[C@H](O)[C@@H](O[C@H]3O[C@H](CO)[C@@H](O)[C@H](N)[C@H]3O)[C@H](N)C[C@@H]2N)[C@H](N)C[C@@H]1O [tobramycin]
Sensitivity against antibiotics [1]: positive
